In ChEMBL document CHEMBL4229569, “Structure-Based Design of 1-Heteroaryl-1,3-propanediamine Derivatives as a Novel Series of CC-Chemokine Receptor 5 Antagonists” (J Med Chem, 2018):

Assays:
Hepatocyte [1] = experiment: Metabolic stability in rat hepatocytes assessed as compound remaining by UPLC/Q-TOF mass spectrometric analysis; assay type: ADME, cell-based
Hepatocyte [2] = experiment: Metabolic stability in human hepatocytes assessed as compound remaining by UPLC/Q-TOF mass spectrometric analysis; assay type: ADME, cell-based
Canis familiaris [3] = experiment: Clearance in dog at 0.5 mg/kg, iv by LC-MS/MS analysis; assay type: ADME, organism-based, Canis lupus familiaris; conditions: in vivo
[4] = Cmax in dog at 2 mg/kg, po by LC-MS/MS analysis; assay type: ADME, organism-based, Canis lupus familiaris; design: dose 2 mg/kg, route oral; conditions: in vivo
Canis familiaris [5] = experiment: Oral bioavailability in dog at 2 mg/kg by LC-MS/MS analysis; assay type: ADME, organism-based, Canis lupus familiaris; conditions: in vivo
[6] = Cmax in Sprague-Dawley rat at 10 mg/kg, po by LC-MS/MS analysis; assay type: ADME, organism-based; design: dose 10 mg/kg, route oral; conditions: in vivo
[7] = Cytotoxicity against human TZM-bl cells after 48 hrs by MTT assay; assay type: cell-based
Rattus norvegicus = experiment: Tmax in Sprague-Dawley rat at 10 mg/kg, po by LC-MS/MS analysis; assay type: ADME, organism-based; conditions: in vivo
Hepatocyte [8] = experiment: Metabolic stability in dog hepatocytes assessed as compound remaining by UPLC/Q-TOF mass spectrometric analysis; assay type: ADME, cell-based, Canis lupus familiaris
Canis familiaris [9] = experiment: AUC (0 to infinity) in dog at 2 mg/kg, po by LC-MS/MS analysis; assay type: ADME, organism-based, Canis lupus familiaris; design: dose 2 mg/kg, route oral, time infinity; conditions: in vivo
[10] = AUC in rat at 10 mg/kg, po administered as single dose; assay type: ADME, organism-based; conditions: in vivo
[11] = Tmax in dog at 2 mg/kg, po by LC-MS/MS analysis; assay type: ADME, organism-based, Canis lupus familiaris; conditions: in vivo

Stability (Hepatocyte [1]): 79%
Stability (Hepatocyte [2]): 33%
clearance (Canis familiaris [3]): 21 mL/min/kg
Cmax [4]: 256 ng/mL
F (Canis familiaris [5]): 40%
Cmax [6]: 5.5 ng/mL
Tmax (Rattus norvegicus): 120 min
Stability (Hepatocyte [8]): 45%
AUC (Canis familiaris [9]): 583 ng·h/mL
AUC [10]: 12.4 ng·h/mL
Tmax [11]: 45 min
Compound: Cc1nnc(C(C)C)n1[C@@H]1C[C@H]2CC[C@@H](C1)N2CC[C@H](NC(=O)C1CCC(F)(F)CC1)c1ccccc1 [MARAVIROC]
CC50 at 48 h [7]: > 200 µM
